Data published in patent US20160297761A1, “NOVEL INHIBITORS OF GLUTAMINASE” (RHIZEN PHARMACEUTICALS SA, priority 2014, published 2016).
Structures can show the parent of a compound that is named as a salt. Where two headings read alike, the source gives them in different places.

Biological target: T1, L-glutaminase present in mice brain homogenate (Glutaminase(Brain)) (Mus musculus, UniProt D3Z7P3)
T1 sequence (D3Z7P3 55-674): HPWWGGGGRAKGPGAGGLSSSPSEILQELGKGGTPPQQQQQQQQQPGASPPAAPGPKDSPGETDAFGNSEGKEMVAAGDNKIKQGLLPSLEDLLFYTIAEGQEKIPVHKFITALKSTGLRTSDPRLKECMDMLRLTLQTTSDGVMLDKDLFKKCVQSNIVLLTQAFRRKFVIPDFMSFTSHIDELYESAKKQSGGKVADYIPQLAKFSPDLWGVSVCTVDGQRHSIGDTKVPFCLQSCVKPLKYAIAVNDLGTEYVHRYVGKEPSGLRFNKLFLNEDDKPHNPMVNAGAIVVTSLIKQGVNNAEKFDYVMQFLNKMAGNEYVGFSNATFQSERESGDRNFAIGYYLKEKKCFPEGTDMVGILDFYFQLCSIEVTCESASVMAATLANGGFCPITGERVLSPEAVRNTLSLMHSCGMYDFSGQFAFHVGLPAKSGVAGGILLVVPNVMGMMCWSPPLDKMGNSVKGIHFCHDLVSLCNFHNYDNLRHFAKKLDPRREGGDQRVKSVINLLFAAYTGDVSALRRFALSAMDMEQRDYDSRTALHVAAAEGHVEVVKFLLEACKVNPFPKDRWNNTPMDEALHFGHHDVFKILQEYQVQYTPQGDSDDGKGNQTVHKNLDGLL
Test: Glutaminase enzyme activity using glutaminase enzyme from mice brain/kidney homogenate (Nessler's reagent, ammonia)
Type: biochemical
Conditions: for inhibition at 0.1 µM: read-out: Glutaminase(Brain) activity % inhibition 0.1 μM; for inhibition at 1 µM: read-out: Glutaminase(Brain) activity % inhibition @1 μM
Description: Assay 3: Determination of Glutaminase Enzyme Activity Using Glutaminase
Enzyme from Mice Brain/Kidney
Step 1: Preparation of Tissue Homogenates: Male Balb/c mice were administered 0.28 M ammonium chloride in drinking water for 7 days. The animals were sacrificed and brain/kidney organs collected on dry ice. […] The tissue was homogenized and supernatants were stored at −80° C. until the enzyme assay was performed.
Aim: Compounds were assessed for their ability to inhibit the enzymatic activity of L-glutaminase present in mice brain/kidney homogenate.
Protocol: The assay was performed using a colorimetric method using Nessler's Reagent by quantifying the amount of ammonia formed as a by product during the enzymatic conversion of L-glutamine to glutamate. In the routine assay, 16 μl of tissue homogenate is added to 33 μl of Tris-Hcl phosphate buffer (pH 8) along with 1 μl of DMSO/test compound containing the desired final concentration and vortexed briefly. 50 μl of 20 mM L-glutamine Tris buffer is added to start the reaction and incubated for 15 minutes at 37° C. The ammonia formed is detected by adding 20 μl of reaction mixture to cold water in a 96 well plate followed by 20 μl of Nessler's reagent. The colour developed is measured at 450 nm. Data Analysis: Activity of the test compound is reported as % inhibition and the data is analyzed using Graphpad Prism (Graphpad software; San Diego Calif.) for IC50 determination.

Row | Structure (SMILES) | inhibition at 0.1 µM [%] | inhibition at 1 µM [%] | inhibition at 0.1 µM (0.1 μM, mice brain homogenate) [%] | inhibition at 1 µM (1 μM, mice brain homogenate) [%]
1 | O=C(Cc1cccc(OC(F)(F)F)c1)Nc1ccc(CCCCc2nnc(NC(=O)Cc3ccc(C4CCNCC4)cc3)s2)cn1 [Example-34, 2-(4-(Piperidin-4-yl)phenyl)-N-(5-(4-(6-(2-(3-(trifluoromethoxy)phenyl)acetamido)pyridin-3-yl)butyl)-1,3,4-thiadiazol-2-yl)acetamide hydrochloride] | < 25 | 25 to 50 | – | –
2 | O=C(Cc1ccccn1)Nc1nnc(CC2CCC(Cc3nnc(NC(=O)Cc4ccccn4)s3)CC2)s1 (stereo not drawn) [Example-106, N,N′-(5, 5′-(Cyclohexane-1,4-diylbis(methylene))bis(1,3,4-thiadiazole-5,2-diyl))bis(2-(pyridin-2-yl)acetamide)] | – | – | < 25 | 25 to 50
3 | CS(=O)(=O)c1cccc(CC(=O)Nc2nnc(CCCCc3ccc(NC(=O)Cc4cccnc4)nc3)s2)c1 [Example-13, 2-(3-(Methylsulfonyl)phenyl)-N-(5-(4-(6-(2-(pyridin-3-yl)acetamido)pyridin-3-yl)butyl)-1,3,4-thiadiazol-2-yl)acetamide] | – | – | 75 to 100 | 75 to 100
4 | O=C(Cc1cccnc1)Nc1ccc(CCCCc2nnc(NC(=O)Cc3ccccc3F)s2)cn1 [Example-19, 2-(2-Fluorophenyl)-N-(5-(4-(6-(2-(pyridin-3-yl)acetamido)pyridin-3-yl)butyl)-1,3,4-thiadiazol-2-yl)acetamide] | – | – | 50 to 75 | 75 to 100
5 | O=C(Cc1cccc(OC(F)(F)F)c1)Nc1ccc(CCCCc2nnc(NC(=O)Cn3nc(C(F)(F)F)cc3C(F)(F)F)s2)cn1 [Example-35, 2-(3,5-Bis(trifluoromethyl)-1H-pyrazol-1-yl)-N-(5-(4-(6-(2-(3-(trifluoromethoxy)phenyl)acetamido)pyridin-3-yl)butyl)-1,3,4-thiadiazol-2-yl)acetamide] | – | – | < 25 | < 25
6 | CS(=O)(=O)Nc1cccc(CC(=O)Nc2nnc(CCCCc3ccc(NC(=O)Cc4cccc(OC(F)(F)F)c4)nc3F)s2)c1 [Example-39, N-(6-Fluoro-5-(4-(5-(2-(3-(methylsulfonamido)phenyl)acetamido)-1,3,4-thiadiazol-2-yl)butyl)pyridin-2-yl)-2-(3-(trifluoromethoxy)phenyl)acetamide] | – | – | 25 to 50 | 75 to 100
7 | O=C(Cc1cccnc1)Nc1ccc(CCCCc2nnc(NC(=O)Cc3ccccc3Cl)s2)cn1 [Example-12, 2-(2-Chlorophenyl)-N-(5-(4-(6-(2-(pyridin-3-yl)acetamido)pyridin-3-yl)butyl)-1,3,4-thiadiazol-2-yl) acetamide] | – | – | 75 to 100 | 75 to 100
8 | O=C(Cc1cccc(OC(F)(F)F)c1)Nc1cnc(CCCCc2nnc(NC(=O)Cc3ccccn3)s2)cn1 [Example-6, 2-(Pyridin-2-yl)-N-(5-(4-(5-(2-(3-(trifluoromethoxy)phenyl)acetamido)pyrazin-2-yl)butyl)-1,3,4-thiadiazol-2-yl)acetamide] | < 25 | 25 to 50 | – | –
9 | O=C(Cc1cccc(OC(F)(F)F)c1)Nc1ccc(CCCCc2nnc(NC(=O)Cc3cccnc3)s2)nc1 [Example-5, 2-(Pyridin-3-yl)-N-(5-(4-(5-(2-(3-(trifluoromethoxy)phenyl)acetamido)pyridin-2-yl)butyl)-1,3,4-thiadiazol-2-yl)acetamide] | – | – | < 25 | < 25
10 | O=C(Cc1cccc(OC(F)(F)F)c1)Nc1ncc(CCCCc2nnc(NC(=O)Cc3ccccn3)s2)cn1 [Example-7, 2-(Pyridin-2-yl)-N-(5-(4-(2-(2-(3-(trifluoromethoxy)phenyl)acetamido)pyrimidin-5-yl)butyl)-1,3,4-thiadiazol-2-yl)acetamide] | – | – | < 25 | 25 to 50
11 | O=C(Cc1cccc(OC(F)(F)F)c1)Nc1ccc(CC2CC(c3nnc(NC(=O)Cc4ccccn4)s3)C2)nn1 (stereo not drawn) [Example-110, 2-(Pyridin-2-yl)-N-(5-(3-((6-(2-(3-(trifluoromethoxy)phenyl)acetamido)pyridazin-3-yl)methyl)cyclobutyl)-1,3,4-thiadiazol-2-yl)acetamide] | 75 to 100 | 75 to 100 | – | –
12 | COc1ccccc1CC(=O)Nc1nnc(CCC#Cc2ccc(NC(=O)Cc3ccccc3Cl)nc2)s1 [Example 1, 2-(2-Chlorophenyl)-N-{5-[4-(5-(2-(2-methoxyphenyl)acetamido)-1,3,4-thiadiazol-2-yl)but-1-ynyl]pyridin-2-yl}acetamide] | – | – | 25 to 50 | 75 to 100
13 | O=C(Cc1cccnc1)Nc1ccc(CCCCc2nnc(NC(=O)Cc3cccnc3)s2)cn1 [Example-15, 2-(Pyridin-3-yl)-N-(5-(4-(5-(2-(pyridin-3-yl)acetamido)-1,3,4-thiadiazol-2-yl)butyl)pyridin-2-yl)acetamide] | – | – | 50 to 75 | 75 to 100
14 | O=C(Cc1cccc(OC(F)(F)F)c1)Nc1ccc(CCCCc2nnc(NC(=O)Cc3ccccn3)s2)nc1 [Example-4, 2-(Pyridin-2-yl)-N-(5-(4-(5-(2-(3-(trifluoromethoxy)phenyl)acetamido)pyridin-2-yl)butyl)-1,3,4-thiadiazol-2-yl)acetamide] | – | – | < 25 | –
15 | O=C(Cc1ccccc1Cl)Nc1ccc(CCCCc2nnc(NC(=O)Cc3cccnc3)s2)cn1 [Example-26, 2-(2-Chlorophenyl)-N-(5-(4-(5-(2-(pyridin-3-yl)acetamido)-1,3,4-thiadiazol-2-yl)butyl)pyridin-2-yl)acetamide] | – | – | 50 to 75 | 75 to 100
16 | O=C(Cc1ccccc1Cl)Nc1ccc(CCCCc2nnc(NC(=O)Cc3ccccn3)s2)cn1 [Example-25, 2-(2-Chlorophenyl)-N-(5-(4-(5-(2-(pyridin-2-yl)acetamido)-1,3,4-thiadiazol-2-yl)butyl)pyridin-2-yl)acetamide] | – | – | < 25 | 50 to 75
17 | COc1ccccc1CC(=O)Nc1nnc(CCCCc2ccc(NC(=O)Cc3ccccc3Cl)nc2)s1 [Example 2, 2-(2-Chlorophenyl)-N-{5-[4-(5-(2-(2-methoxyphenyl)acetamido)-1,3,4-thiadiazol-2-yl)butyl]pyridin-2-yl}acetamide] | – | – | 50 to 75 | 75 to 100
18 | CC(C)(C)OC(=O)N1CCC(c2ccc(CC(=O)Nc3nnc(CCCCc4ccc(NC(=O)Cc5cccc(OC(F)(F)F)c5)nc4)s3)cc2)CC1 [Example-33, Tert-butyl 4-(4-(2-oxo-2-(5-(4-(6-(2-(3-(trifluoromethoxy)phenyl)acetamido)pyridin-3-yl)butyl)-1,3,4-thiadiazol-2-ylamino)ethyl)phenyl)piperidine-1-carboxylate] | – | – | < 25 | 25 to 50
19 | CS(=O)(=O)c1ccc(CC(=O)Nc2nnc(CCCCc3ccc(NC(=O)Cc4cccnc4)nc3)s2)cc1 [Example-14, 2-(4-(Methylsulfonyl)phenyl)-N-(5-(4-(6-(2-(pyridin-3-yl)acetamido)pyridin-3-yl)butyl)-1,3,4-thiadiazol-2-yl)acetamide] | – | – | 75 to 100 | 75 to 100
20 | O=C(Cc1cccc(OC(F)(F)F)c1)Nc1ccc(CCCCc2nnc(NC(=O)Cc3cccc(C4CCNCC4)c3)s2)cn1 [Example-36, 2-(3-(Piperidin-4-yl)phenyl)-N-(5-(4-(6-(2-(3-(trifluoromethoxy)phenyl)acetamido)pyridin-3-yl)butyl)-1,3,4-thiadiazol-2-yl)acetamide hydrochloride] | 25 to 50 | 25 to 50 | – | –
